Test systems include OVCAR-8 ovarian; IGROV1 ovarian; KM12 colon; MOLT-4 leukemia; U251 CNS; CAKI-1 renal; SF-268 CNS; A549 NSCLC; COLO 205 colon; RXF 393 renal; 786-0 renal.
Holding throughout (test): inhibition of tumour cell growth, NCI panel, 48 h

Where “and” joins values, the source holds several entries; their conditions need not be identical. Equal values may be shown once.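 Cells were grown in 96-well plates and exposed to each compound for 48 hours at five concentrations; endpoints were interpolated linearly between bracketing concentrations, or set to the highest concentration if not reached. At the GI50, growth is halved. At the TGI there is no net growth.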

On to `O=P(Nc1ccc(Cl)cc1)(Oc1ccccc1)N(CCCl)CCCl` (stereo not given), for which the TGI in the assay with OVCAR-8 ovarian, in the assay on IGROV1 ovarian, in the assay with KM12 colon, with MOLT-4 leukemia, in the assay with U251 CNS and in the assay with CAKI-1 renal was greater than 100 µM in each case. Moreover, the TGI in the assay on SF-268 CNS, with A549 NSCLC and in the assay on COLO 205 colon was greater than 100 µM each time.
With `COc1cc(/C=C(\C#N)C(N)=O)cc(Br)c1O`, the TGI with OVCAR-8 ovarian, in the assay with IGROV1 ovarian, with KM12 colon, in the assay on RXF 393 renal, with MOLT-4 leukemia and in the assay on U251 CNS was greater than 100 µM in each case. For the same compound, the TGI with CAKI-1 renal, in the assay with SF-268 CNS, with A549 NSCLC and in the assay on COLO 205 colon was greater than 100 µM throughout. For the same compound, the GI50 in the assay on COLO 205 colon is 73.8 µM and > 100 µM.
Regarding `NC(Cc1ccccc1)C(=O)N[C@H]1c2ccsc2/C(=N/O)[C@H]1O` (stereo not given in full), the TGI with OVCAR-8 ovarian, in the assay with IGROV1 ovarian, with RXF 393 renal, in the assay with U251 CNS, in the assay on CAKI-1 renal and in the assay with A549 NSCLC was greater than 100 µM each time. In addition, the TGI in the assay with COLO 205 colon is greater than 100 µM.
As to `C=CCCN1CCc2c([nH]c3ccccc23)C1C(=O)O` (stereo not given), the TGI in the assay with IGROV1 ovarian, in the assay with KM12 colon, in the assay on RXF 393 renal, with MOLT-4 leukemia, with U251 CNS and in the assay with CAKI-1 renal was greater than 100 µM in each case. The TGI in the assay on SF-268 CNS, with A549 NSCLC and with COLO 205 colon was greater than 100 µM in each case.
Regarding `O=C(O)c1ccc([N+](=O)[O-])c2cc3cnccc3nc12`, the TGI is 48.9 µM with OVCAR-8 ovarian; greater than 100 µM in the assay with IGROV1 ovarian; 44.4 µM in the assay with KM12 colon; 74.1 µM in the assay on RXF 393 renal; 29.7 µM in the assay with MOLT-4 leukemia; 35.6 µM in the assay on U251 CNS. The TGI with COLO 205 colon was 40.4 µM.
In the case of `CCOC(=O)c1nc2ccc(C(F)(F)F)cc2nc1NCc1cc(OC)c(OC)c(OC)c1`, the TGI in the assay with OVCAR-8 ovarian, in the assay on IGROV1 ovarian, in the assay with KM12 colon, in the assay with RXF 393 renal, in the assay on MOLT-4 leukemia and in the assay with 786-0 renal was greater than 100 µM in each case. The TGI is greater than 100 µM in the assay with CAKI-1 renal, greater than 100 µM with SF-268 CNS, greater than 100 µM in the assay on A549 NSCLC and 73.4 µM in the assay with COLO 205 colon.
Consider `Nc1nc(N)c2ncn(-c3ccc(Cl)cc3)c2n1`, for which the TGI was greater than 100 µM with OVCAR-8 ovarian; 96.3 µM with IGROV1 ovarian; greater than 100 µM in the assay with KM12 colon; 73.5 µM with RXF 393 renal; greater than 100 µM in the assay with U251 CNS; greater than 100 µM in the assay with 786-0 renal. Also, the TGI in the assay on CAKI-1 renal, with A549 NSCLC and in the assay on COLO 205 colon was greater than 100 µM in each case.
For `CNc1ccc(C(=O)CC(O)CCC(C)C2OC(=O)CC(O)CC(=O)CC(O)CC(O)CC(O)CC(O)CC3(O)CC(O)C(C(=O)OC)C(CC(O[C@@H]4O[C@H](C)[C@@H](O)[C@H](N)[C@@H]4O)/C=C/C=C/C=C/C=C/C=C/C=C/C=C/C2C)O3)cc1` (stereo not given in full), the GI50 in the assay with IGROV1 ovarian was 2.96 µM; in the assay on KM12 colon, 3.9 µM; in the assay on RXF 393 renal, 1.72 µM; in the assay on MOLT-4 leukemia, 2.62 µM; in the assay on U251 CNS it was 3.87 µM; with CAKI-1 renal it was 1.88 µM. The GI50 in the assay with SF-268 CNS was 2.82 µM; in the assay on COLO 205 colon it was 2.69 µM. Besides, the TGI came to 7.94 µM in the assay on IGROV1 ovarian; 12.4 µM with KM12 colon; 4.46 µM in the assay with RXF 393 renal; 6.31 µM in the assay with MOLT-4 leukemia; 56.4 µM in the assay with U251 CNS; 4.89 µM in the assay on CAKI-1 renal. Moreover, the TGI came out at 7.46 µM in the assay on SF-268 CNS and 6.6 µM in the assay with COLO 205 colon.
On to `COC1C=CC(O)C(CO)O1` (stereo not given), for which the TGI with OVCAR-8 ovarian, in the assay on IGROV1 ovarian, in the assay with KM12 colon, with RXF 393 renal, in the assay on MOLT-4 leukemia and with U251 CNS was greater than 100 µM each time. Moreover, the TGI in the assay on A549 NSCLC was greater than 100 µM.
For the compound `O=Cc1ccc2c(c1)CC1(Cc3ccccc3C1)C2`, the TGI in the assay with OVCAR-8 ovarian is 39 µM; in the assay on IGROV1 ovarian, 46.1 µM; with KM12 colon, greater than 100 µM; with RXF 393 renal it was greater than 100 µM; in the assay on MOLT-4 leukemia it was 42.9 µM; in the assay with U251 CNS it was 36.2 µM. The figures for the TGI in the assay with 786-0 renal, with A549 NSCLC and in the assay with COLO 205 colon were 29.9 µM, greater than 100 µM and 54.2 µM, respectively.
As for `O=C1C=CC[C@H]2O[C@@H](COC(=O)Cc3ccccc3)C[C@H]2O1`, the TGI is 77.9 µM in the assay with OVCAR-8 ovarian; 54.6 µM in the assay on IGROV1 ovarian; 42.4 µM in the assay on KM12 colon; greater than 100 µM with MOLT-4 leukemia; greater than 100 µM in the assay on CAKI-1 renal; 56.2 µM in the assay on SF-268 CNS. For the same compound, the TGI with A549 NSCLC and with COLO 205 colon was greater than 100 µM throughout.
For the compound `OCC(O)COCn1nncc1Cn1ncc2c(SCc3ccccc3)ncnc21` (stereo not given), the TGI with OVCAR-8 ovarian, in the assay on IGROV1 ovarian, with KM12 colon, with U251 CNS, in the assay with 786-0 renal and in the assay on CAKI-1 renal was greater than 100 µM in each case. Moreover, the TGI is 41.1 µM in the assay on SF-268 CNS, greater than 100 µM in the assay with A549 NSCLC and greater than 100 µM in the assay with COLO 205 colon.
On to `COc1cc(C(=O)N(Cc2cccnc2)C(=S)N(Cc2cccnc2)C(=O)c2cc(OC)c(OC)c(OC)c2)cc(OC)c1OC`, for which the TGI in the assay with OVCAR-8 ovarian is greater than 100 µM; in the assay on KM12 colon, 56.7 µM; in the assay with RXF 393 renal, greater than 100 µM; in the assay on MOLT-4 leukemia, greater than 100 µM; in the assay with 786-0 renal, greater than 100 µM; in the assay with CAKI-1 renal, greater than 100 µM. For the same compound, the TGI in the assay with SF-268 CNS, in the assay with A549 NSCLC and in the assay with COLO 205 colon was greater than 100 µM each time.
Regarding `Cc1ccc(/C=C2\CCCc3ccccc3C2=O)cc1`, the TGI was greater than 100 µM in the assay on OVCAR-8 ovarian; 49.2 µM in the assay on IGROV1 ovarian; 18.2 µM in the assay on KM12 colon; 52.8 µM in the assay with MOLT-4 leukemia; 52.9 µM with U251 CNS; greater than 100 µM in the assay with 786-0 renal. The TGI was greater than 100 µM in the assay with CAKI-1 renal, 30.7 µM with SF-268 CNS, greater than 100 µM with A549 NSCLC and 18.9 µM in the assay on COLO 205 colon.
